# Data taken from patent US9006187B2, “Thiophene derivative as SGLT2 inhibitor and pharmaceutical composition comprising same” (Green Cross Corporation, priority 2010, dated 2015).
# Molecular target: Human SGLT2 (hSGLT2) (Homo sapiens (Human), UniProt P31639)
# Assay: Inhibitory effects on human SGLT2 activities: sodium-dependent 14C-AMG glucose transport (uptake) assay in CHO cells expressing hSGLT2
# Conditions: read-out: hSGLT2 Inhibitory Activity IC50; CHO cells stably expressing hSGLT2; 14C-AMG uptake, 37° C., 2 h; single determinations for examples; in-house assay
# Chain of Human SGLT2 (hSGLT2) (P31639 whole entry): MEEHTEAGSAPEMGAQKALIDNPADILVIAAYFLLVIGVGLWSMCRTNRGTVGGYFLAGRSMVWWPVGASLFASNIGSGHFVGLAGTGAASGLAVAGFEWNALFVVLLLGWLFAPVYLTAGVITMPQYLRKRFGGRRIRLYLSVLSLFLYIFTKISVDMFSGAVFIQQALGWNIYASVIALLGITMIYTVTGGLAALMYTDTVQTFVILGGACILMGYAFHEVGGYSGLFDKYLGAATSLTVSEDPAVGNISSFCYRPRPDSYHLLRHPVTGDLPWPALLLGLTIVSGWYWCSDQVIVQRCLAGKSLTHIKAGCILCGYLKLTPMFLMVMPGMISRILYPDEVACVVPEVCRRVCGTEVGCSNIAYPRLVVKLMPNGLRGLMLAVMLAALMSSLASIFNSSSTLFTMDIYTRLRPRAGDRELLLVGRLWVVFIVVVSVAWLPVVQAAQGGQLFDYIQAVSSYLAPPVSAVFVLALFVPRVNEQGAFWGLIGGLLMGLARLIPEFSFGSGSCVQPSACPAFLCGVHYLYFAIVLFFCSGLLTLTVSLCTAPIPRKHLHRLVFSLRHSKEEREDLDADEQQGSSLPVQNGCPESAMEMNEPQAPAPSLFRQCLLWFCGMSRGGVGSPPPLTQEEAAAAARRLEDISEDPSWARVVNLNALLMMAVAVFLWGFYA
row,SMILES,IC50 [nM]
1,"C=CCOc1ccc(Cc2cc([C@@H]3O[C@H](CO)[C@@H](O)[C@H](O)[C@H]3O)sc2C)cc1 [Example 22, (2R,3R,4S,5S,6R)-2-(4-(4-(allyloxy)benzyl)-5-methylthiophen-2-yl)-6-(hydroxymethyl)-tetrahydro-2H-pyran-3,4,5-triol]",27.5
2,"Cc1cc([C@@H]2O[C@H](CO)[C@@H](O)[C@H](O)[C@H]2O)sc1Cc1ccc(F)cc1 [Example 29, (2R,3R,4S,5S,6R)-2-(5-(4-fluorobenzyl)-4-methylthiophen-2-yl)-6-(hydroxymethyl)tetrahydro-2H-pyran-3,4,5-triol]",> 10000
3,"COCCOc1ccc(Cc2cc([C@@H]3O[C@H](CO)[C@@H](O)[C@H](O)[C@H]3O)sc2Cl)cc1 [Example 10, (2R,3R,4S,5S,6R)-2-(5-chloro-4-(4-(2-methoxyethoxy)benzyl)thiophen-2-yl)-6-(hydroxymethyl)-tetrahydro-2H-pyran-3,4,5-triol]",115
4,"CCc1ccc(Cc2sc([C@@H]3O[C@H](CO)[C@@H](O)[C@H](O)[C@H]3O)cc2C)cc1 [Example 25, (2R,3R,4S,5S,6R)-2-(5-(4-ethylbenzyl)-4-methylthiophen-2-yl)-6-(hydroxymethyl)tetrahydro-2H-pyran-3,4,5-triol]",24.8
5,"CCCOc1ccc(Cc2cc([C@@H]3O[C@H](CO)[C@@H](O)[C@H](O)[C@H]3O)sc2Cl)cc1 [Example 5, (2R,3R,4S,5S,6R)-2-(5-chloro-4-(4-propoxybenzyl)thiophen-2-yl)-6-(hydroxymethyl)-tetrahydro-2H-pyran-3,4,5-triol]",65
6,"C#CCOc1ccc(Cc2cc([C@@H]3O[C@H](CO)[C@@H](O)[C@H](O)[C@H]3O)sc2Cl)cc1 [Example 8, (2R,3R,4S,5S,6R)-2-(5-chloro-4-(4-(prop-2-ynyloxy)benzyl)thiophen-2-yl)-6-(hydroxymethyl)-tetrahydro-2H-pyran-3,4,5-triol]",111
7,"OC[C@H]1O[C@@H](c2cc(Cc3ccc(OC4CCOC4)cc3)c(Cl)s2)[C@H](O)[C@@H](O)[C@@H]1O (stereo partly drawn) [Example 16, (2R,3R,4S,5S,6R)-2-(5-chloro-4-(4-(tetrahydrofuran-3-yloxy)benzyl)thiophen-2-yl)-6-(hydroxymethyl)-tetrahydro-2H-pyran-3,4,5-triol]",162
8,"Cc1ccc(Cc2cc([C@@H]3O[C@H](CO)[C@@H](O)[C@H](O)[C@H]3O)sc2Cl)cc1 [Example 14, (2R,3R,4S,5S,6R)-2-(5-chloro-4-(4-methylbenzyl)thiophen-2-yl)-6-(hydroxymethyl)-tetrahydro-2H-pyran-3,4,5-triol]",60.2
9,"COc1ccc(Cc2sc([C@@H]3O[C@H](CO)[C@@H](O)[C@H](O)[C@H]3O)cc2C)cc1 [Example 30, (2R,3S,4S,5R,6R)-2-(hydroxymethyl)-6-(5-(4-methoxybenzyl)-4-methylthiophen-2-yl)tetrahydro-2H-pyran-3,4,5-triol]",68.9
10,"CCCc1ccc(Cc2sc([C@@H]3O[C@H](CO)[C@@H](O)[C@H](O)[C@H]3O)cc2C)cc1 [Example 24, (2R,3S,4S,5R,6R)-2-(hydroxymethyl)-6-(4-methyl-5-(4-propylbenzyl)thiophen-2-yl)tetrahydro-2H-pyran-3,4,5-triol]",59.8
11,"OC[C@H]1O[C@@H](c2cc(Cc3ccc(OC4CCCC4)cc3)c(Cl)s2)[C@H](O)[C@@H](O)[C@@H]1O [Example 11, (2R,3R,4S,5S,6R)-2-(5-chloro-4-(4-(cyclopentyloxy)benzyl)thiophen-2-yl)-6-(hydroxymethyl)-tetrahydro-2H-pyran-3,4,5-triol]",57.2
12,"CCOc1ccc(Cc2sc([C@@H]3O[C@H](CO)[C@@H](O)[C@H](O)[C@H]3O)cc2C)cc1 [Example 31, (2R,3R,4S,5S,6R)-2-(5-(4-ethoxybenzyl)-4-methylthiophen-2-yl)-6-(hydroxymethyl)tetrahydro-2H-pyran-3,4,5-triol]",71.4
13,"Cc1sc([C@@H]2O[C@H](CO)[C@@H](O)[C@H](O)[C@H]2O)cc1Cc1ccc(-c2ccc(F)cc2)s1 [Example 21, (2R,3R,4S,5S,6R)-2-(4-((5-(4-fluorophenyl)thiophen-2-yl)methyl)-5-methylthiophen-2-yl)-6-(hydroxymethyl)-tetrahydro-2H-pyran-3,4,5-triol]",21.1
14,"Cc1sc([C@@H]2O[C@H](CO)[C@@H](O)[C@H](O)[C@H]2O)cc1Cc1ccc(O)cc1 [Example 23, (2R,3R,4S,5S,6R)-2-(4-(4-hydroxybenzyl)-5-methylthiophen-2-yl)-6-(hydroxymethyl)-tetrahydro-2H-pyran-3,4,5-triol]",50.2
15,"CSc1ccc(Cc2cc([C@@H]3O[C@H](CO)[C@@H](O)[C@H](O)[C@H]3O)sc2Cl)cc1 [Example 12, (2R,3R,4S,5S,6R)-2-(5-chloro-4-(4-(methylthio)benzyl)thiophen-2-yl)-6-(hydroxymethyl)-tetrahydro-2H-pyran-3,4,5-triol]",12.8
16,"CC(C)Oc1ccc(Cc2cc([C@@H]3O[C@H](CO)[C@@H](O)[C@H](O)[C@H]3O)sc2Cl)cc1 [Example 9, (2R,3R,4S,5S,6R)-2-(5-chloro-4-(4-isopropoxybenzyl)thiophen-2-yl)-6-(hydroxymethyl)-tetrahydro-2H-pyran-3,4,5-triol]",11.9
17,"OC[C@H]1O[C@@H](c2cc(Cc3ccc(-c4ccc(F)cc4)s3)c(Cl)s2)[C@H](O)[C@@H](O)[C@@H]1O [Example 3, (2R,3R,4S,5S,6R)-2-(5-chloro-4-((5-(4-fluorophenyl)thiophen-2-yl)methyl)thiophen-2-yl)-6-(hydroxymethyl)-tetrahydro-2H-pyran-3,4,5-triol]",91.3
18,"CCc1ccc(Cc2cc([C@@H]3O[C@H](CO)[C@@H](O)[C@H](O)[C@H]3O)sc2Cl)cc1 [Example 17, (2R,3R,4S,5S,6R)-2-(5-chloro-4-(4-ethylbenzyl)thiophen-2-yl)-6-(hydroxymethyl)-tetrahydro-2H-pyran-3,4,5-triol]",4.47
19,"Cc1ccc(Cc2sc([C@@H]3O[C@H](CO)[C@@H](O)[C@H](O)[C@H]3O)cc2C)cc1 [Example 26, (2R,3S,4S,5R,6R)-2-(hydroxymethyl)-6-(4-methyl-5-(4-methylbenzyl)thiophen-2-yl)tetrahydro-2H-pyran-3,4,5-triol]",69.6
20,"OC[C@H]1O[C@@H](c2cc(Cc3ccc(O)cc3)c(Cl)s2)[C@H](O)[C@@H](O)[C@@H]1O [Example 6, (2R,3R,4S,5S,6R)-2-(5-chloro-4-(4-hydroxybenzyl)thiophen-2-yl)-6-(hydroxymethyl)-tetrahydro-2H-pyran-3,4,5-triol]",140

# Continued by falling IC50, values first:
row,IC50 [nM],SMILES
1,451,"Cc1cc([C@@H]2O[C@H](CO)[C@@H](O)[C@H](O)[C@H]2O)sc1Cc1ccc(Cl)cc1 [Example 28, (2R,3R,4S,5S,6R)-2-(5-(4-chlorobenzyl)-4-methylthiophen-2-yl)-6-(hydroxymethyl)tetrahydro-2H-pyran-3,4,5-triol]"
2,94,"CC#CCOc1ccc(Cc2cc([C@@H]3O[C@H](CO)[C@@H](O)[C@H](O)[C@H]3O)sc2Cl)cc1 [Example 15, (2R,3R,4S,5S,6R)-2-(4-(4-(but-2-ynyloxy)benzyl)-5-chlorothiophen-2-yl)-6-(hydroxymethyl)-tetrahydro-2H-pyran-3,4,5-triol]"
3,88.3,"Cc1cc([C@@H]2O[C@H](CO)[C@@H](O)[C@H](O)[C@H]2O)sc1Cc1ccc(C(C)(C)C)cc1 [Example 27, (2R,3R,4S,5S,6R)-2-(5-(4-tert-butylbenzyl)-4-methylthiophen-2-yl)-6-(hydroxymethyl)tetrahydro-2H-pyran-3,4,5-triol]"
4,86.5,"COc1ccc(Cc2cc([C@@H]3O[C@H](CO)[C@@H](O)[C@H](O)[C@H]3O)sc2Cl)cc1 [Example 2, (2R,3R,4S,5S,6R)-2-(5-chloro-4-(4-methoxybenzyl)thiophen-2-yl)-6-(hydroxymethyl)-tetrahydro-2H-pyran-3,4,5-triol]"
5,70.7,"CCOCCOc1ccc(Cc2cc([C@@H]3O[C@H](CO)[C@@H](O)[C@H](O)[C@H]3O)sc2Cl)cc1 [Example 13, (2R,3R,4S,5S,6R)-2-(5-chloro-4-(4-(2-ethoxyethoxy)benzyl)thiophen-2-yl)-6-(hydroxymethyl)-tetrahydro-2H-pyran-3,4,5-triol]"
6,54.6,"C=CCOc1ccc(Cc2cc([C@@H]3O[C@H](CO)[C@@H](O)[C@H](O)[C@H]3O)sc2Cl)cc1 [Example 4, (2R,3R,4S,5S,6R)-2-(4-(4-(allyloxy)benzyl)-5-chlorothiophen-2-yl)-6-(hydroxymethyl)-tetrahydro-2H-pyran-3,4,5-triol]"
7,48.4,"CCSc1ccc(Cc2cc([C@@H]3O[C@H](CO)[C@@H](O)[C@H](O)[C@H]3O)sc2Cl)cc1 [Example 7, (2R,3R,4S,5S,6R)-2-(5-chloro-4-(4-(ethylthio)benzyl)thiophen-2-yl)-6-(hydroxymethyl)-tetrahydro-2H-pyran-3,4,5-triol]"
8,34.6,"CCOc1ccc(Cc2cc([C@@H]3O[C@H](CO)[C@@H](O)[C@H](O)[C@H]3O)sc2Cl)cc1 [Example 1, (2R,3R,4S,5S,6R)-2-(5-chloro-4-(4-ethoxybenzyl)thiophen-2-yl)-6-(hydroxymethyl)-tetrahydro-2H-pyran-3,4,5-triol]"
9,11.5,"COc1ccc(Cc2cc([C@@H]3O[C@H](CO)[C@@H](O)[C@H](O)[C@H]3O)sc2C)cc1 [Example 20, (2R,3S,4S,5R,6R)-2-(hydroxymethyl)-6-(4-(4-methoxybenzyl)-5-methylthiophen-2-yl)-tetrahydro-2H-pyran-3,4,5-triol]"
10,10.3,"CCCc1ccc(Cc2cc([C@@H]3O[C@H](CO)[C@@H](O)[C@H](O)[C@H]3O)sc2Cl)cc1 [Example 18, (2R,3R,4S,5S,6R)-2-(5-chloro-4-(4-propylbenzyl)thiophen-2-yl)-6-(hydroxymethyl)-tetrahydro-2H-pyran-3,4,5-triol]"
11,8.73,"CCOc1ccc(Cc2cc([C@@H]3O[C@H](CO)[C@@H](O)[C@H](O)[C@H]3O)sc2C)cc1 [Example 19, (2R,3R,4S,5S,6R)-2-(4-(4-ethoxybenzyl)-5-methylthiophen-2-yl)-6-(hydroxymethyl)-tetrahydro-2H-pyran-3,4,5-triol]"
